What all share (assay type): cell-based
Assay [1] relates to Influenza Virus A H1N1, California July 2009. The assay can be described thus: In vitro virucidal assay, endpoint dilution CCID50 on MDCK cells. Particulars: 95% ethanol control, 37° C. As to the method: Formulation B containing 0.6% PVP-I (for nasal spray) was tested for virucidal assay against influenza virus (Influenza Virus A H1N1, California July 2009). Formulation B was diluted with artificial nasal fluid as follows: neat, 1/1.8, 1/3.2 and 1/10. Other controls were 95% ethanol and MEM solution. Virus solution was added to test dilution at 1/10 and incubated for 30 seconds and 2 minutes at 37° C. And thus, the final concentration of solution tested were 90%, 50%, 28% and 9%. Following the incubation period, samples were neutralized by a 1/10 dilution in test media containing 10% FBS. The surviving virus in each tube was determined using a standard endpoint dilution CCID50 assay as follows. Samples were diluted 1/10 in series and each dilution added to 4 replicate columns of 96-well plates seeded with 80-100% confluent MDCK cells. Plates were incubated for 6 days at 37° C. with 5% CO2 then scored for the presence or absence of cytopathic effect (CPE). Virus titer (CCID50) was calculated using the Reed-Muench method (1948). The log reduction value (LRV) of the compound compared to the virus control was calculated. The entire procedure was repeated in triplicate. Toxicity controls were performed to show whether test compound toxicity would confound results by killing the cells in the absence of virus.

The next assay deals with Human Adenovirus Type 5. The assay can be described thus: In-vitro anti-viral (virucidal) assay, cytopathic effect study with human AE549 cells. Particulars: 70% ethanol. For orientation: Damage to the host cells serves as the signal in cytopathic effect assays.
The next assay deals with SARS-CoV-2. The settings on record: 45% ethanol control, 37° C.; for Viral Titer: mean of 3 ± SD.

Molecules are shown by their SMILES. Read-outs that look alike come from different tables or passages of the source.

Description for Human Adenovirus Type 5: To determine whether contact with aqueous formulation of this invention containing 0.6% PVP-I inactivates (“kills”) virus, the aqueous formulation was mixed directly with virus for 30±5 minutes, then neutralized and the surviving virus was quantified.

With `CCO` [Ethanol], the “LRV (log reduction value)” value in assay [1] (contact time 0.5 min) is reported as 1.5; in assay [1] (contact time 2 min), 4.4; in the assay with SARS-CoV-2 (contact time 0.5 min) it was 3.5; with SARS-CoV-2 (contact time 2 min) it was 1.9; with SARS-CoV-2 (contact time 10 min) it was 3.3. Further, the “Viral Titer” value in assay [1] (contact time 0.5 min) was 4.5 Log10 CCID50 of virus per mL; in assay [1] (contact time 2 min), 2.3 Log10 CCID50 of virus per mL; in the assay on SARS-CoV-2 (contact time 0.5 min), <1.7 ± 0.0 Log10 CCID50 of virus per mL; in the assay with SARS-CoV-2 (contact time 2 min), <1.7 ± 0.0 Log10 CCID50 of virus per mL; in the assay with SARS-CoV-2 (contact time 10 min) it was <0.67 ± 0.0 Log10 CCID50 of virus per mL. Also, the “virucidal effect of ethanol control” value in the assay on Human Adenovirus Type 5 is “fully effective”.

For the origin of these results see US20230105599A1, “Aqueous Formulations Containing Povidone Iodine for Effective Treatment and Prevention of Virus Infections” (priority 2020, published 2023).
